Data taken from PubChem BioAssay AID463199 (Broad Institute, 2010).
Calls of active or inactive are those of the source.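 The calls were made as follows: active = AC50, the dose giving half-maximal effect, exceeds a fixed cutoff for a compound that rescues yeast growth under heat; inactive = the rest, inconclusive results apart.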

Test system: S. cerevisiae Burl-1 ts mutant growth, BacTiter-Glo, 38.5C 24 h
Test: restored growth of temperature-sensitive Burl-1 yeast – whole organism, S. cerevisiae, Burl-1 ts mutant, luminescence, counter-screen for SUMOylation pathway inhibitor project, dose response (AID 463199)

SMILES | AC50
Cc1cc(C)n2nc(SCC(=O)NC3CCCC(C)C3C)nc2n1 (stereo not drawn) | > 42 µM (inactive)
Cc1ccc(N2C(=O)C3N=NN(CC(=O)N4N=C(c5cccc6ccccc56)CC4c4ccccc4)C3C2=O)cc1 (stereo not drawn) | > 21 µM (inactive)
COc1ccc2c(c1)OC[C@H]1[C@H]2N2C(=O)c3cc(Br)ccc3NC(=O)[C@@]2(C)[C@H]1c1ccccc1 | > 42 µM (inactive)
O=C(OC1CCOC1=O)c1cccc(S(=O)(=O)Nc2ccc(F)cc2)c1 (stereo not drawn) | > 42 µM (inactive)
Cc1[nH]oc(=O)c1N=Nc1ccccc1 | > 42 µM (inactive)
c1ccc2cc(C3CCCCC3)ncc2c1 | > 42 µM (inactive)
Cc1cc(C)cc(N2C(=O)CC(Sc3ncn[nH]3)C2=O)c1 (stereo not drawn) | > 42 µM (inactive)
CSc1ccccc1NC(=O)COc1nsnc1N1CCOCC1 | > 42 µM (inactive)
c1ccc(C(c2ccccc2)N2CCN(C(c3ccccn3)c3nnnn3C3CCCC3)CC2)cc1 (stereo not drawn) | > 42 µM (inactive)
COc1ccc(CN(CC(=O)NCc2ccco2)C(=O)CCC(=O)Nc2nccs2)cc1 | > 42 µM (inactive)
CCc1nc2ccc(C(=O)N3CCN(CC)CC3)cc2nc1CC | > 42 µM (inactive)
CCC1=Nc2cc(C(=O)NCc3ccco3)ccc2Sc2ccccc21 | > 42 µM (inactive)
COc1cc2c(=O)n(CCC(=O)NCC3CCCO3)c(=O)n(CC(=O)Nc3ccccc3C)c2cc1OC (stereo not drawn) | > 42 µM (inactive)
CN(CP(=O)(O)C(O)c1ccccc1)S(C)(=O)=O (stereo not drawn) | > 42 µM (inactive)
C/C=C(/C)C(=O)OC1c2c(ccc3ccc(=O)oc23)OC(C)(C)C1OC(=O)/C(C)=C\C (stereo not drawn) | > 42 µM (inactive)
CC1=C(C(=O)Nc2ccccc2)C(c2ccccc2[N+](=O)[O-])NC(=O)N1 (stereo not drawn) | > 42 µM (inactive)
c1ccc(-c2nc(N3CCOCC3)c3ccccc3n2)nc1 | > 42 µM (inactive)
Cc1cc(C(=O)COc2cccc3cccnc23)c(C)n1C | > 42 µM (inactive)
Clc1ccccc1-c1ccc2ncnc(NCc3cccs3)c2c1 | > 42 µM (inactive)
CCC(C)NCCOc1ccccc1C (stereo not drawn) | > 42 µM (inactive)
COCC(=O)n1nc(-c2ccccc2)nc1NCc1ccc(N(C)C)cc1 | > 42 µM (inactive)
COc1ccccc1C(=O)NC(=O)COC(=O)Cc1ccccc1[N+](=O)[O-] | > 42 µM (inactive)
O=C(c1ccc(-c2ccccc2)cc1)C1CCCN(Cc2ccncc2)C1 (stereo not drawn) | > 42 µM (inactive)
CN(C)CCOC(=O)CCc1ccccc1 | > 42 µM (inactive)
COc1ccc(-c2csc(Nc3cc(C)ccn3)n2)cc1C | > 42 µM (inactive)

SMILES | AC50
Cc1ccc(C(=O)N/C(=C\c2cccs2)C(=O)NCc2ccncc2)cc1 | > 42 µM (inactive)
CC(C)C(=O)NNc1ccc(C(F)(F)F)cn1 | > 42 µM (inactive)
CCC(CC)NC(=O)c1oc2ccccc2c1COc1ccccc1 | > 42 µM (inactive)
CCCCC(=O)NC(=S)Nc1cccc(C(=O)O)c1 | > 42 µM (inactive)
COc1ccc(C2CC3(CC(C)(C)NC(=S)N3)Oc3cc(O)cc(C)c32)cc1 (stereo not drawn) | > 42 µM (inactive)
N=c1n(CCCOc2ccc(Br)cc2)c2ccccc2n1CC(N)=O | > 42 µM (inactive)
CC(C)n1c(CN(C)c2ccccc2)nc2ccccc21 | > 42 µM (inactive)
O=C1CN(C(=O)COC(=O)CCNS(=O)(=O)c2ccc(Cl)cc2)c2ccccc2N1 | > 42 µM (inactive)
Cc1cc(CNC(=O)C2CCC(=O)N(Cc3ccccc3F)C2)on1 (stereo not drawn) | > 42 µM (inactive)
CCCCN(C)C(=O)CCC(=O)Nc1ccc2nc(N3CCN(C)CC3)cc(C)c2c1 | > 42 µM (inactive)
Cc1ccccc1C(=O)NNC(=S)Nc1cccc(C(F)(F)F)c1 | > 42 µM (inactive)
O=C(NCCCn1ccnc1)Nc1cccc2ccccc12 | > 42 µM (inactive)
COc1ccc(C)cc1NC(=O)C12CCC(C)(C(=O)O1)C2(C)C (stereo not drawn) | > 42 µM (inactive)
O=C(Oc1ccccc1N1C(=O)C2CC=CCC2C1=O)c1ccc(Br)cc1 (stereo not drawn) | > 42 µM (inactive)
O=C(/C=C/c1ccc(Cl)cc1Cl)Nc1cccc(S(=O)(=O)NC2=NCCCCC2)c1 | > 42 µM (inactive)
Cc1ccc2nc(SCC(=O)Nc3cccc(S(N)(=O)=O)c3)[nH]c2c1 | > 42 µM (inactive)
CN(C#N)c1nc(Cl)nc(Nc2cccc(Cl)c2)n1 | > 42 µM (inactive)
CCCNC(=O)c1cc2c(C(F)(F)F)nn(C)c2s1 | > 42 µM (inactive)
Cc1c(NC(C)c2cc(Cl)ccc2O)c(=O)n(-c2ccccc2)n1C (stereo not drawn) | > 42 µM (inactive)
COC(=O)c1c(C)n(Cc2ccc3c(c2)OCO3)c2ccc(O)cc12 | > 42 µM (inactive)
CCOC(=O)C1CCN(CC(O)COCc2ccccc2)CC1 (stereo not drawn) | > 42 µM (inactive)
Cc1c(OC(C)C(=O)N2C[C@H]3C[C@@H](C2)c2cccc(=O)n2C3)ccc2c3c(c(=O)oc12)CCCC3 (stereo partly drawn) | > 42 µM (inactive)
CCOC(=O)Cc1csc(NC(=O)NC2(C(F)(F)F)Oc3ccccc3O2)n1 | > 42 µM (inactive)
COc1cc(/C=C(\NC(=O)c2ccccc2)C(=O)Nc2nccs2)ccc1OC(C)=O | > 42 µM (inactive)
Cc1ccc(Cn2c(NCCc3ccccc3)nc3c2c(=O)n(C)c(=O)n3C)cc1 | > 42 µM (inactive)

SMILES | AC50
CC1=Nc2ccc(C)cc2N(Cc2ccccc2)C(=O)C1 | > 42 µM (inactive)
COc1ccc(NC2=C(C)C(=O)CC2)cc1 | > 42 µM (inactive)
Cc1ccccc1-c1nc2ccc(Cl)cc2c(=O)n1O | > 42 µM (inactive)
CCc1nnc2n1N=C(c1ccc(Cl)cc1)CS2 | > 42 µM (inactive)
CCOc1ccc(NC(=O)CSc2nnc(Cc3csc(C)n3)o2)cc1 | > 42 µM (inactive)
CCCCC(O)(c1ccc(F)cc1)C(CN1CCOCC1)c1ccc(Cl)cc1 (stereo not drawn) | > 21 µM (inactive)
CC(=O)Nc1ccc(S(=O)(=O)N(C)CC(=O)Nc2ccc(Br)cc2F)cc1 | > 42 µM (inactive)
COCCN(C(=O)CSc1nnc(-c2ccc(C)cc2)n1N)c1c(N)n(Cc2ccccc2)c(=O)[nH]c1=O | > 42 µM (inactive)
CS(=O)(=O)N1CCCC(C(=O)NCc2ccco2)C1 (stereo not drawn) | > 42 µM (inactive)
O=C(c1ccco1)N1CCN(C(=O)C2Cc3ccccc3CN2S(=O)(=O)c2ccc(F)cc2)CC1 (stereo not drawn) | > 42 µM (inactive)
Cc1ccccc1-c1nnc(SCc2ccc(F)cc2)o1 | > 42 µM (inactive)
CCCCCCCCCCOC(=O)Cn1c(COc2ccccc2OC)[n+](C)c2ccccc21 | > 42 µM (inactive)
CC(C)(C)c1ccc(-c2nc(C=O)c3ccccn23)cc1 | > 42 µM (inactive)
CN(C)c1ccc(C(CNS(=O)(=O)c2ccc([N+](=O)[O-])cc2)N2CCOCC2)cc1 (stereo not drawn) | > 42 µM (inactive)
CSc1ncccc1C(=O)NC1CCCc2c1cnn2-c1ccc(C)c(C)c1 (stereo not drawn) | > 42 µM (inactive)
CCOC(=O)C1C(c2ccc(C)o2)NC(=O)NC1(O)C(F)(F)F (stereo not drawn) | > 42 µM (inactive)
COc1ccc(C2C3=C(CC(C)(C)CC3=O)Nc3n[nH]c(C)c32)cc1 (stereo not drawn) | > 42 µM (inactive)
CCCC(O)(c1ccc(Br)cc1)C(CN1CCOCC1)c1ccc(Cl)cc1 (stereo not drawn) | > 42 µM (inactive)
C#CCn1c(=NC(=O)CN2C(=O)CCC2=O)sc2cccc(OC)c21 | > 42 µM (inactive)
COc1ccc(NC(=O)COc2cc(C)cc(C)c2)cc1S(=O)(=O)N1CCCCC1 | > 42 µM (inactive)
CCCN1C(=O)c2ccccc2NC1c1ccc(C)cc1 (stereo not drawn) | > 42 µM (inactive)
COc1ccc(S(=O)(=O)NCC(=O)N(CC(=O)NCc2ccco2)Cc2ccccc2)cc1 | > 42 µM (inactive)
Cc1ccccc1Cn1cc(NC(=O)c2cc3nc(-c4ccco4)cc(C(F)(F)F)n3n2)cn1 | > 42 µM (inactive)
CC(C)Cc1nc(N2CCOCC2)c(C#N)c2c1CCC2 | > 42 µM (inactive)
CC(C(=O)NCCN1CCOCC1)(c1ccccc1)c1ccccc1 | > 42 µM (inactive)

SMILES | AC50
CCOC(=O)CN1NC2(CCC(C(C)(C)C)CC2)NC1=S (stereo not drawn) | > 42 µM (inactive)
Cc1cc(S(=O)(=O)N2CCCCC2CCNC(=O)C(=O)NCC2CCCO2)ccc1F (stereo not drawn) | > 42 µM (inactive)
CCn1c(SCC(=O)NC2CCCCC2)nnc1C(C)NC(=O)c1ccccc1F (stereo not drawn) | > 42 µM (inactive)
COc1cc(O)oc1C=Nc1ccc(C(=O)O)cc1 | > 42 µM (inactive)
Cc1ccc(C)c(S(=O)(=O)n2cnc3ccccc32)c1 | > 42 µM (inactive)
CC1CC(C)(C)N2C(=O)C3(Nc4ccccc4S3)c3cccc1c32 (stereo not drawn) | > 42 µM (inactive)
O=C(NCC1CCCO1)C1CC(c2ccc(Cl)c(Cl)c2)=NO1 (stereo not drawn) | > 42 µM (inactive)
CCC(Cc1ccccc1)NC(=O)C1CCN(c2nn3c(=O)cc(C)nc3s2)CC1 (stereo not drawn) | > 42 µM (inactive)
CCOC(=O)c1sc2ncn(C(CC)C(=O)OCC)c(=O)c2c1C (stereo not drawn) | > 42 µM (inactive)
NS(=O)(=O)c1cccc(NC(=O)c2cccnc2Oc2ccccc2)c1 | > 42 µM (inactive)
CC(=O)Nc1ccc(-c2csc(NC(=O)C3CC(=O)N(c4ccc5c(c4)OCCO5)C3)n2)cc1 (stereo not drawn) | > 42 µM (inactive)
O=C(Nc1ccc(S(=O)(=O)NC2=NCCCCC2)cc1)c1ccc(C(F)(F)F)cc1 | > 42 µM (inactive)
COc1ccc2c(c1)[C@H]1[C@H](CO2)[C@H](c2ccccc2)[C@]2(C)C(=O)Nc3ccc(Br)cc3C(=O)N12 | > 42 µM (inactive)
O=C1c2ccccc2NC(c2ccccc2O)N1O (stereo not drawn) | > 42 µM (inactive)
COc1ccccc1CNC(=O)[C@H](C)NC(=O)C1CCN(C(=O)[C@@H](N)CC(C)C)CC1 | > 42 µM (inactive)
Cc1ccccc1-n1c(-c2cccnc2)n[nH]c1=S | > 42 µM (inactive)
O=C1CCN(Cc2ccccc2)CCN1CCOc1ccccc1 | > 42 µM (inactive)
Cc1ccc2c(c1)C(O)(CC(=O)c1cccnc1)C(=O)N2 (stereo not drawn) | > 42 µM (inactive)
CC(C)(C)NC(=O)NC(=O)CN1CCN(S(=O)(=O)c2ccc3c(c2)OCCO3)CC1 | > 21 µM (inactive)
COc1cc(NC(=S)N2CCN(C(=O)C3CCCO3)CC2)c(OC)cc1Cl (stereo not drawn) | > 42 µM (inactive)
O=C(NCCc1cnccn1)C1CCC(=O)N(Cc2ccc(Cl)cc2)C1 (stereo not drawn) | > 42 µM (inactive)
N#Cc1c(-c2ccco2)cc(-c2cccnc2)nc1N | > 42 µM (inactive)
COC(=O)c1ccc(NC(=O)CCN2CCN(c3ccccc3)CC2)cc1 | > 42 µM (inactive)
